Results as given in patent US10507213B2, “Method for treating cancer using a selenourea-coordinated gold(I)-carbene complex” (King Fahd University of Petroleum and Minerals, priority 2017, dated 2019).

Tests used:
[1] = tested on: MCF7 (breast cancer cells); experiment: in vitro cytotoxicity, MTT assay, MCF7; assay type: cell-based, human; details: 72 h incubation, three independent experiments, read-out: IC50 values against MCF7 cancer cell line
Description: (§1) The complexes, [Au(IPr)Cl] and [Au(IPr)(Seu)]PF6 (1) were tested for their in vitro cytotoxic effects against human cell lines; MCF7 (breast cancer), HCI15 (colon cancer) and A549 (lung carcinoma) as reported previously. See M. Altaf, M. Monim-ul-Mehboob, A. A. A. Seliman, A. A. Tsai), V. Dhuna, G. Bhatia, K. Dhuna, Synthesis, X-ray Structures, Spectroscopic Analysis and Anticancer Activity of Novel Gold(I) Carbene Complexes, J. Organomet. Chem, 765 (2014) 68-79, incorporated herein by reference in its entirety. The cells were seeded at the concentration of 3×10^3 cells/well in 100 μL of DMEM containing 10% fetal bovine serum (FBS) in a 96-well tissue culture plate and incubated for 72 h at 37° C., 5% CO2 and 90% relative humidity in a CO2 incubator. After that 100 μL of 100, 50, 25 and 12.5 μM solutions of cisplatin and gold(I) complexes prepared in DMEM were added to the cells and the cultures were incubated for 72 h. The medium in the wells was cast off and 100 μL of DMEM containing MTT (0.5 mg/ml) was added to the wells, with subsequent incubation in the CO2 incubator at 37° C. in the dark for 4 h. After incubation, purple-colored formazan produced by the cells appeared as dark crystals in the bottom of the wells. The culture medium was carefully removed from each well to prevent disruption of the monolayer and 100 μL of dimethylsulfoxide (DMSO) was added to each well. The solution in the wells was thoroughly mixed to dissolve the formazan crystals which produce a purple solution. The absorbance of the 96 well-plates was measured at 570 nm with LabSystems Multiskan EX-ELISA reader against a reagent blank. The experimental results are calculated as the micromolar concentration of 50% cell growth inhibition (IC50) of each drug. The MTT assay was carried out in three independent experiments for each analysis. […]

[2] = tested on: HCT15 (colon cancer cells); experiment: in vitro cytotoxicity, MTT assay, HCT15; assay type: cell-based, human; details: 72 h incubation, three independent experiments, read-out: IC50 values against HCT15 cancer cell line
Description: as §1

A549 (lung carcinoma) = experiment: in vitro cytotoxicity, MTT assay, A549; assay type: cell-based, human; details: 72 h incubation, three independent experiments, read-out: IC50 values against A549 cancer cell line
Description: The complexes, [Au(IPr)Cl] and [Au(IPr)(Seu)]PF6 (1) were tested for their in vitro cytotoxic effects against human cell lines; MCF7 (breast cancer), HCI15 (colon cancer) and A549 (lung carcinoma) as reported previously. See M. Altaf, M. Monim-ul-Mehboob, A. A. A. Seliman, A. A. Tsai), V. Dhuna, G. Bhatia, K. Dhuna, Synthesis, X-ray Structures, Spectroscopic Analysis and Anticancer Activity of Novel Gold(I) Carbene Complexes, J. Organomet. Chem, 765 (2014) 68-79, incorporated herein by reference in its entirety. The cells were seeded at the concentration of 3×10^3 cells/well in 100 μL of DMEM containing 10% fetal bovine serum (FBS) in a 96-well tissue culture plate and incubated for 72 h at 37° C., 5% CO2 and 90% relative humidity in a CO2 incubator. […] The medium in the wells was cast off and 100 μL of DMEM containing MTT (0.5 mg/ml) was added to the wells, with subsequent incubation in the CO2 incubator at 37° C. in the dark for 4 h. After incubation, purple-colored formazan produced by the cells appeared as dark crystals in the bottom of the wells. The culture medium was carefully removed from each well to prevent disruption of the monolayer and 100 μL of dimethylsulfoxide (DMSO) was added to each well. The solution in the wells was thoroughly mixed to dissolve the formazan crystals which produce a purple solution. The absorbance of the 96 well-plates was measured at 570 nm with LabSystems Multiskan EX-ELISA reader against a reagent blank. The experimental results are calculated as the micromolar concentration of 50% cell growth inhibition (IC50) of each drug. The MTT assay was carried out in three independent experiments for each analysis.
The complexes, [Au(Ipr)Cl] and [Au(Ipr)(Seu)]PF6 or Complex (I), as well as cisplatin (standard anticancer drug) were tested for in vitro cytotoxicity against three human cancer cell lines; A549 (lung carcinoma), HCT15 (colon cancer cells) and MCF7 (breast cancer cells) using MTT assay.
The IC50 values (as μM) obtained from the plot of the concentration of compounds against the percentage of cell viability are given in Table 4. […]

[3] = stability by square wave stripping voltammetry (SWSV) in phosphate buffer; assay type: physicochemical; details: phosphate buffer pH 7.0, SWSV, 50, 75 and 100 μM
Description: (§2) Electrochemical (Square wave stripping voltammetry, SWSV) measurements were performed on a CH Instrument (CHI 1232A) potentiostat. Electrochemical cell comprises of a platinum wire as a counter electrode, an Ag/AgCl saturated with KCl as reference electrode and glassy carbon electrode (GCE; 3.0 mm diameter, Model CHI104, CH Instruments, Austin, Tex.) as a working electrode inserted into 2.0 mL glass cell containing phosphate buffer solution, pH 7.0 as supporting electrolyte. 0.1 M buffer solution was prepared by mixing, appropriate volumes of 0.2 M monosodium phosphate and disodium phosphate prepared with distilled water. Stock solutions of the complex prepared with methanol, while L-tyrosine and L-tryptophan were prepared by dissolving in 0.10 M NaOH in ratio 1:4 with distilled water. GCE was polished with 0.05 μm alumina, rinsed with distilled water prior to every SWSV measurements at room temperature in a quiescent condition at potential windows between −0.20 V and 1.20 V for the stability and 0.00 V and 1.20 V for the interaction studies. Working conditions are; pulse width (increment) 4 mV, pulse height (amplitude) 25 mV and frequency, 15 Hz.
(§3) The stability and electrochemical behavior of complex 1 were examined by its electroactive properties in phosphate buffer solution of pH 7.0 using SWSV technique (Square wave stripping voltammetry). […]

[4] = stability in polar solvents; assay type: physicochemical; details: water, methanol, ethanol, acetone; deuterated solvents such as dichloromethane
[5] = solubility in phosphate buffer estimated from SWSV; assay type: physicochemical; details: 0.1 M phosphate buffer (pH 7.0); estimation based on the highest soluble concentration
Description: as §2, §3

Row | Molecule | IC50 [1] | IC50 [2] | IC50 (A549 (lung carcinoma)) | stability in aqueous solution [3] | stability in polar solvents [4] | solubility in phosphate buffer [5]
1 | N.N.[Cl][Pt][Cl] [Cisplatin] | 23 ± 4 µM | 32 ± 2 µM | 42 ± 2 µM |  |  | 
2 | CC(C)c1cccc(C(C)C)c1-n1cc[n+](-c2c(C(C)C)cccc2C(C)C)[c]1[Au-][Se+]=C(N)N.F[P-](F)(F)(F)(F)F [Complex 1, [Au(IPr)(Seu)]PF6] | 75 ± 3 µM | 76 ± 2 µM | 82 ± 1 µM | stable in aqueous solution | stable in polar solvents such as water, methanol, ethanol and acetone | ≥ 8.53 mg/100 ml
3 | chlorido[1,3-Bis(2,6-di isopropylphenyl)imidazol-2-ylidene]gold(I) [[Au(Ipr)Cl]] | 110 ± 2 µM | 122 ± 1 µM | 180 ± 2 µM |  |  | 
